The target of test [1] is T1, DDR1 (Homo sapiens, UniProt Q08345). Kind of test: DDR1 cell based assay (PathHunter U2OS DDR1, collagen II stimulation). As to conditions: U2OS-DDR1 cells, bovine Type II Collagen stimulation. How it is done: The inhibition of DDR1 receptor activation by compounds was evaluated by PathHunter® U2OS DDR1 assay (Eurofins DiscoverX), according to the manufacturer's instructions. Briefly, U2OS-DDR1 cells were seeded in white 384-well plates at a density of 5000 cells/well and incubated for 2 hours at 37° C. and 5% CO2. Cells were then treated with compounds at different concentrations and incubated for 30 minutes, before stimulation with bovine Type II Collagen 20 μg/ml and incubation overnight at 37° C. and 5% CO2. PathHunter Detection Reagents were prepared according to the protocol provided by DiscoverX and 20 μl/well of this mix were added to each well. After incubating the plates for 1 hour at room temperature in the dark, luminescence signal was acquired with a plate reader. Raw data were normalized to vehicle control (0% for normalization) and positive control (100% for normalization; cells treated with 20 μg/ml collagen II) and IC50 parameters were calculated in GraphPad Prism 8.0 software, using sigmoidal dose-response curve fitting with variable slope.
T1 sequence (Q08345 19-913): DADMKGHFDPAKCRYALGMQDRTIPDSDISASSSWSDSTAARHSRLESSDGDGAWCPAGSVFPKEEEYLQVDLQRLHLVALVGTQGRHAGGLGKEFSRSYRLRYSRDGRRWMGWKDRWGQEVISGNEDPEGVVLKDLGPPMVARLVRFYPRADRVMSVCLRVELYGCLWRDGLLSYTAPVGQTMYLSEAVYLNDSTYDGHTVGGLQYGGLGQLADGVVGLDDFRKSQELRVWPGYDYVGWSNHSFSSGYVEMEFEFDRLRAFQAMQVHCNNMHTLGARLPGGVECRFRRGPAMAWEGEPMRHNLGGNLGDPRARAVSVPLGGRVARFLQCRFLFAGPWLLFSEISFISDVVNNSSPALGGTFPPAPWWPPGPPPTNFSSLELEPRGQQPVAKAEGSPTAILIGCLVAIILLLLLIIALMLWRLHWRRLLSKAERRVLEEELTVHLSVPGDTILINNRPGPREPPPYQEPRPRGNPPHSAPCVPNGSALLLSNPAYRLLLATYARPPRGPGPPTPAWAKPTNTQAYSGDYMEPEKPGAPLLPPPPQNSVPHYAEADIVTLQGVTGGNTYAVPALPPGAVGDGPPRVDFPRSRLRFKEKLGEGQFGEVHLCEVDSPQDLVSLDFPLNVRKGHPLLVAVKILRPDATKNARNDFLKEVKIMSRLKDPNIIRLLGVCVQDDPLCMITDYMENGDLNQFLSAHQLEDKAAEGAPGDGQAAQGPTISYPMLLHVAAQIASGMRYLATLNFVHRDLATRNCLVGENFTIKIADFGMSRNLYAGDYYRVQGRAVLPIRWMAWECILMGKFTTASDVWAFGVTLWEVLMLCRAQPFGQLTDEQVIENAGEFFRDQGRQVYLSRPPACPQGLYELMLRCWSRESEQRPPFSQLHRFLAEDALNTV

The target of test [2] is T1, DDR1. The test is described as follows: DDR1 LanthaScreen Europium Kinase Binding assay. As to the method: (§1) DDR1 and DDR2 binding assays were performed using Life Technologies LanthaScreen™ Europium Kinase Binding assay. The compounds were incubated with 5 nM DDR1 (Carna Biosciences) or 5 nM DDR2 (Life Technologies) for 1 hour at room temperature in white 384-well OptiPlate (PerkinElmer), containing 20 nM or 10 nM Kinase Tracer 178 respectively and 2 nM Europium labelled anti-GST antibody (Life Technologies) in assay buffer (50 mM HEPES pH 7.5, 10 mM MgCI2, 1 mM EGTA and 0.01% BRIJ35). The ratio of fluorescence emission 665 nm/615 nm after excitation at 340 nm was obtained using the Tecan Spark 20M plate reader. IC50 values were determined in GraphPad Prism 7.0 software, using 4 parameter model: log(inhibitor) vs. response. IC50 values were converted in Ki using the Cheng-Prusoff equation (Ki=IC50/(1+[Tracer]/Kd).

The target of the next test is T2, DDR2 (Homo sapiens, UniProt Q16832).
T2 sequence (Q16832 22-855): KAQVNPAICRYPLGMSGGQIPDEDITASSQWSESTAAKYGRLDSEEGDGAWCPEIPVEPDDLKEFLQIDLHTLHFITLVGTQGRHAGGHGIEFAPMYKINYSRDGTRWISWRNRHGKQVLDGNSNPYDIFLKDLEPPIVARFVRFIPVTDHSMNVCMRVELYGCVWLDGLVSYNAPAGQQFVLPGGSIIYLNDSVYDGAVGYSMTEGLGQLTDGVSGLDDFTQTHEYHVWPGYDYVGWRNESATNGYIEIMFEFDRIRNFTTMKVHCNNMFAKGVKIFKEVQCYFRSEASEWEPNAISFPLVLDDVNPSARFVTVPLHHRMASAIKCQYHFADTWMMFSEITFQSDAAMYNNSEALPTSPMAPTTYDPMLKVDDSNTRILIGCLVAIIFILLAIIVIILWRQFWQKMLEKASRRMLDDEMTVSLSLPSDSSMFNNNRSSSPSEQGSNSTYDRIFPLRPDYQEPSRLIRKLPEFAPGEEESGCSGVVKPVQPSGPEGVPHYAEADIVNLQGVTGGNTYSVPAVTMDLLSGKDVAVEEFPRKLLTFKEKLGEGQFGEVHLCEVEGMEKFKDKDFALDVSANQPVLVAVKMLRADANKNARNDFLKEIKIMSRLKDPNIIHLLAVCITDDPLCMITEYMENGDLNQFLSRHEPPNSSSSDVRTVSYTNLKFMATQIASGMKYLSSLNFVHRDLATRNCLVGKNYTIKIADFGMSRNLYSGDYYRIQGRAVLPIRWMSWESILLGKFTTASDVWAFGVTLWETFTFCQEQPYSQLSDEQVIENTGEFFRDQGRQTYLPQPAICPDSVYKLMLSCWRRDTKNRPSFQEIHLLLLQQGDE
The test is described as follows: DDR2 LanthaScreen Europium Kinase Binding assay. How it is done: as §1

The mark [3] stands for this setting: binding affinity, IC50 converted in Ki using Cheng-Prusoff, read-out: Ki DDR1.
The mark [4] stands for this setting: binding affinity, IC50 converted in Ki using Cheng-Prusoff, read-out: Ki DDR2.
Setting [5] is: binding assay, Ki from IC50 by Cheng-Prusoff, read-out: DDR1 Ki.
[6] abbreviates: binding assay, Ki from IC50 by Cheng-Prusoff, read-out: DDR2 Ki.

“And” between values parts separate entries of the source, which are not always exact repeats. Identical values can stand only once. Like-named read-outs stand apart in the source and are kept apart here.

Take `CN(C)Cc1cc(NC(=O)c2ccc3c(c2)N(Cc2cnc4cnccn24)CC3)cc(C(F)(F)F)c1` [Example 51, N-(3-((dimethylamino)methyl)-5-(trifluoromethyl)phenyl)-1-(imidazo[1,2-a]pyrazin-3-ylmethyl)indoline-6-carboxamide]: on DDR1 [1], the IC50 is 25 to 50 nM. The inhibitory constant (Ki) at DDR1 [2] (setting [3]) and at DDR2 (setting [4]) was less than 25 nM in each case.
`CC1CN(Cc2cnc3cnccn23)c2cc(C(=O)Nc3cncc(C(F)(F)F)c3)ccc21` (stereo not shown) [Example 92, 1-(imidazo[1,2-a]pyrazin-3-ylmethyl)-3-methyl-N-(5-(trifluoromethyl)pyridin-3-yl)indoline-6-carboxamide]: on DDR1 [1], the IC50 was 25 to 50 nM. Also, the Ki at DDR1 [2] (setting [3]) and at DDR2 (setting [4]) was less than 25 nM throughout.
`CN1CCN(Cc2cc(NC(=O)c3ccc4c(c3)N(C(=O)c3cnc5ccccn35)CC4)cc(C(F)(F)F)c2)CC1` [Example 14, 1-(imidazo[1,2-a]pyridine-3-carbonyl)-N-(3-((4-methylpiperazin-1-yl)methyl)-5-(trifluoromethyl)phenyl)indoline-6-carboxamide] showed an IC50 against DDR1 [1] of 25 to 50 nM. Further, the Ki at DDR1 [2] (setting [3]) and at DDR2 (setting [4]) was less than 25 nM throughout.
On DDR1 [1], `Cc1n[nH]c2ncc(CN3CCc4ccc(C(=O)Nc5ccc(CN6CCCC6)c(C(F)(F)F)c5)cc43)cc12` [Example 70, 1-((3-methyl-1H-pyrazolo[3,4-b]pyridin-5-yl)methyl)-N-(4-(pyrrolidin-1-ylmethyl)-3-(trifluoromethyl)phenyl)indoline-6-carboxamide] displayed a 50% inhibitory concentration (IC50) of 25 to 50 nM. Besides, the Ki at DDR1 [2] (setting [3]) and on DDR2 (setting [4]) was less than 25 nM throughout.
Regarding `Cc1n[nH]c2ncc(CN3CCc4ccc(C(=O)Nc5cc(CN6CCN(C)CC6)nc(C(F)(F)F)c5)cc43)cc12` [Example 81, 1-((3-methyl-1H-pyrazolo[3,4-b]pyridin-5-yl)methyl)-N-(2-((4-methylpiperazin-1-yl)methyl)-6-(trifluoromethyl)pyridin-4-yl)indoline-6-carboxamide], on DDR1 [1], the IC50 was less than 25 nM. In addition, the Ki on DDR1 [2] (setting [3]) and on DDR2 (setting [4]) was less than 25 nM throughout.
At DDR1 [1], `CN1CCN(Cc2cc(NC(=O)c3ccc4c(c3)N(Cc3cnc5cnccn35)CC4)cc(C(F)(F)F)c2)CC1` [Example 10, 1-(imidazo[1,2-a]pyrazin-3-ylmethyl)-N-(3-((4-methylpiperazin-1-yl)methyl)-5-(trifluoromethyl)phenyl)indoline-6-carboxamide] showed an IC50 of 25 to 50 nM. Besides, the inhibitory constant (Ki) on DDR1 [2] (setting [3]) and at DDR2 (setting [4]) was less than 25 nM throughout.
At DDR1 [1], `O=C(Nc1cc(OCCN2CCCC2)cc(C(F)(F)F)c1)c1ccc2c(c1)N(Cc1cnc3cnccn13)CC2` [Example 52, 1-(imidazo[1,2-a]pyrazin-3-ylmethyl)-N-(3-(2-(pyrrolidin-1-yl)ethoxy)-5-(trifluoromethyl)phenyl)indoline-6-carboxamide] yielded an IC50 of 50 to 80 nM. Moreover, the inhibition constant Ki on DDR1 [2] (setting [3]) and on DDR2 (setting [4]) was less than 25 nM each time.
At DDR1 [1], `O=C(Nc1cc(OCCN2CCOCC2)cc(C(F)(F)F)c1)c1ccc2c(c1)N(Cc1cnc3cnccn13)CC2` [Example 53, 1-(imidazo[1,2-a]pyrazin-3-ylmethyl)-N-(3-(2-morpholinoethoxy)-5-(trifluoromethyl)phenyl)indoline-6-carboxamide] returned an IC50 of 50 to 80 nM. Moreover, the Ki on DDR1 [2] (setting [3]) and on DDR2 (setting [4]) was less than 25 nM throughout.
Turning to `O=C(Nc1cc(F)cc(OC(F)(F)F)c1)c1ccc2c(c1)N(Cc1cnc3cnccn13)CC2` [Example 44, N-(3-fluoro-5-(trifluoromethoxy)phenyl)-1-(imidazo[1,2-a]pyrazin-3-ylmethyl)indoline-6-carboxamide], the 50% inhibitory concentration (IC50) against DDR1 [1] was less than 25 nM. Besides, the Ki at DDR1 [2] (setting [3]) and at DDR2 (setting [4]) was less than 25 nM in each case.
The compound `Cc1cn(-c2cc(C(=O)Nc3ccc4c(c3)N(Cc3cnc5ccccn35)CC4)cc(C(F)(F)F)c2)cn1` [Example 23, N-(1-(imidazo[1,2-a]pyridin-3-ylmethyl)indolin-6-yl)-3-(4-methyl-1H-imidazol-1-yl)-5-(trifluoromethyl)benzamide] displayed an IC50 at DDR1 [1] of 50 to 80 nM. Besides, the Ki at DDR1 [2] (setting [3]) and at DDR2 (setting [4]) was less than 25 nM in each case.
For the compound `CC(C)(C)c1cc(NC(=O)c2ccc3c(c2)N(Cc2cnc4cnccn24)CC3)on1` [Example 79, N-(3-(tert-butyl)isoxazol-5-yl)-1-(imidazo[1,2-a]pyrazin-3-ylmethyl)indoline-6-carboxamide], the IC50 against DDR1 [1] lay within 50 to 80 nM. For the same compound, the inhibition constant (Ki) at DDR1 [2] (setting [3]) and on DDR2 (setting [4]) was less than 25 nM each time.
As to `CN1CCN(Cc2cc(C(=O)Nc3ccc4c(c3)N(C(=O)Cc3cnc5ccccn35)CC4)cc(C(F)(F)F)c2)CC1` [Example C2, N-(1-(2-(imidazo[1,2-a]pyridin-3-yl)acetyl)indolin-6-yl)-3-((4-methylpiperazin-1-yl)methyl)-5-(trifluoromethyl)benzamide], the results for the inhibition constant (Ki) on DDR1 [2] (setting [5]) and on DDR2 (setting [6]) were 600 nM and 58000 nM, respectively.
`CC1CN(Cc2cnc3ccccn23)c2cc(C(=O)Nc3cccc(C(F)(F)F)c3)ccc21` (stereo not shown) [Example 33, 1-(imidazo[1,2-a]pyridin-3-ylmethyl)-3-methyl-N-(3-(trifluoromethyl)phenyl)indoline-6-carboxamide]: the IC50 at DDR1 [1] lay within 50 to 80 nM. Besides, the figures for the inhibitory constant (Ki) on DDR1 [2] (setting [3]) and on DDR2 (setting [4]) were less than 25 nM and 25 to 50 nM, respectively.
The corresponding values for `CC1CN(Cc2cnc3[nH]ncc3c2)c2cc(C(=O)Nc3cccc(C(F)(F)F)c3)ccc21` (racemic) [Example 30, 1-((1H-pyrazolo[3,4-b]pyridin-5-yl)methyl)-3-methyl-N-(3-(trifluoromethyl)phenyl)indoline-6-carboxamide] are less than 25 nM, less than 25 nM and less than 25 nM.
The corresponding values for `Cc1cn(-c2cc(NC(=O)c3ccc4c(c3)N(Cc3cnc5ccccn35)CC4C)cc(C(F)(F)F)c2)cn1` (stereo not shown) [Example 25, 1-(imidazo[1,2-a]pyridin-3-ylmethyl)-3-methyl-N-(3-(4-methyl-1H-imidazol-1-yl)-5-(trifluoromethyl)phenyl)indoline-6-carboxamide] are 25 to 50 nM, less than 25 nM and 25 to 50 nM.
For `CN(C)Cc1ccc(NC(=O)c2ccc3c(c2)N(Cc2cnc4cnccn24)CC3)cc1C(F)(F)F` [Example 48, N-(4-((dimethylamino)methyl)-3-(trifluoromethyl)phenyl)-1-(imidazo[1,2-a]pyrazin-3-ylmethyl)indoline-6-carboxamide], the IC50 against DDR1 [1] was 25 to 50 nM. Further, the inhibitory constant (Ki) on DDR1 [2] (setting [3]) and on DDR2 (setting [4]) was less than 25 nM each time.
Regarding `CN1CCN(Cc2cc(C(=O)Nc3ccc4c(c3)N(Cc3ccc5ncsc5c3)CC4)cc(C(F)(F)F)c2)CC1` [Example 17, N-(1-(benzo[d]thiazol-6-ylmethyl)indolin-6-yl)-3-((4-methylpiperazin-1-yl)methyl)-5-(trifluoromethyl)benzamide], on DDR1 [1], the 50% inhibitory concentration (IC50) was 25 to 50 nM. In addition, the Ki on DDR1 [2] (setting [3]) and on DDR2 (setting [4]) was less than 25 nM throughout.
As to `CN1CCN(Cc2cc(NC(=O)c3ccc4c(c3)N(C(=O)Cc3cnc5ccccn35)CC4)cc(C(F)(F)F)c2)CC1` [Example C1, 1-(2-(imidazo[1,2-a]pyridin-3-yl)acetyl)-N-(3-((4-methylpiperazin-1-yl)methyl)-5-(trifluoromethyl)phenyl)indoline-6-carboxamide], the Ki was > 600 nM and 58000 nM on DDR1 [2] (setting [5]); 58000 nM at DDR2 (setting [6]).

(Values after patent US20240217967A1, “INDOLINE DERIVATIVES AS DDRS INHIBITORS” (CHIESI FARMACEUTICI S.P.A., priority 2021, published 2024).)
